Measured values as given in US20090238808A1, “Process for the identification of novel enzyme interacting compounds” (priority 2005, published 2009).
One block for each compound: values may come before it.

Columns and labels:
Assay in all cases: Kinobeads elution with test compound, mouse brain lysate, MS
Assay type in all cases: binding
Settings in all cases: kinase released from kinobeads by specific elution
[1] = target: T1, PKCg (Mus musculus, UniProt P63318)
T1 construct: from tissue; host or cells: mouse brain
Summary of the method: (§1)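 Proteins captured from mouse brain lysate onto kinobeads are displaced with unmodified compound at 1.0 mM (30 min, 4° C), with 2% DMSO or DMF buffer as the control. Eluted proteins are identified by mass spectrometry after gel separation.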

[2] = tested on: LIMK1ps
Summary of the method: as §1

[3] = target: AMPKa1 (Mus musculus, UniProt Q5EG47)
AMPKa1, sequence (Q5EG47 whole entry): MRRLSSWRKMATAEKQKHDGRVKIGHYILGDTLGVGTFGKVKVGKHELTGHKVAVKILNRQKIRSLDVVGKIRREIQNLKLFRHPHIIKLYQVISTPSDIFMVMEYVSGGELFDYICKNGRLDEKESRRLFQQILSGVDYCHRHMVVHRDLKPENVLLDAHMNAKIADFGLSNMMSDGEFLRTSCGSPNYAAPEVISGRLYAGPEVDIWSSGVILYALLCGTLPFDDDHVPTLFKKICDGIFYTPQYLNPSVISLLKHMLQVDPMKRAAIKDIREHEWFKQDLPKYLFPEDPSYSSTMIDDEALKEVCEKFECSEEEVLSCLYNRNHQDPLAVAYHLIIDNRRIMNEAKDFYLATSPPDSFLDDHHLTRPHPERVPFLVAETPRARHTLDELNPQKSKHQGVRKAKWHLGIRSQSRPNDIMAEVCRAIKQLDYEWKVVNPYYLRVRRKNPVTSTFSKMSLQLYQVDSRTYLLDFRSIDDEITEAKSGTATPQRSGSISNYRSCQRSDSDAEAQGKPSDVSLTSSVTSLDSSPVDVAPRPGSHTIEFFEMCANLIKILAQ
AMPKa1, sequence (Q9R078 2-270 partner limits assumed): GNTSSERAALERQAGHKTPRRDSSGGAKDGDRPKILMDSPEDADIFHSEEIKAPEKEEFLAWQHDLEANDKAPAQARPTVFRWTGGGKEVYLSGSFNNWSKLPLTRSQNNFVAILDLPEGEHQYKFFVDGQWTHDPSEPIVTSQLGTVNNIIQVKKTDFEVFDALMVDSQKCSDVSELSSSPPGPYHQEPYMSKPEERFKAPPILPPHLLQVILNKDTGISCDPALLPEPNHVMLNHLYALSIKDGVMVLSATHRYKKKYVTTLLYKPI
AMPKa1, sequence (O54950 whole entry partner): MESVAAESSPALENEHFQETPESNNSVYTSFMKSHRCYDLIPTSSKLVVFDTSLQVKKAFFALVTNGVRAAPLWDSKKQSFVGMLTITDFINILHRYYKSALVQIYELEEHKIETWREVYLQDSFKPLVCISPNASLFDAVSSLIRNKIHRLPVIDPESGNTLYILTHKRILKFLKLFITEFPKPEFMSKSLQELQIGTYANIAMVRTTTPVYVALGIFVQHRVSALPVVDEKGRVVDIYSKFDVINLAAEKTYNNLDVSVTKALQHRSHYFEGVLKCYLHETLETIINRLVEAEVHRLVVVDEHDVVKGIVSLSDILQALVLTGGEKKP
Summary of the method: as §1

[4] = target: T2, QSK (Mus musculus, UniProt Q6P4S6)
T2 construct: from tissue; host or cells: mouse brain
T2 sequence (Q6P4S6 whole entry): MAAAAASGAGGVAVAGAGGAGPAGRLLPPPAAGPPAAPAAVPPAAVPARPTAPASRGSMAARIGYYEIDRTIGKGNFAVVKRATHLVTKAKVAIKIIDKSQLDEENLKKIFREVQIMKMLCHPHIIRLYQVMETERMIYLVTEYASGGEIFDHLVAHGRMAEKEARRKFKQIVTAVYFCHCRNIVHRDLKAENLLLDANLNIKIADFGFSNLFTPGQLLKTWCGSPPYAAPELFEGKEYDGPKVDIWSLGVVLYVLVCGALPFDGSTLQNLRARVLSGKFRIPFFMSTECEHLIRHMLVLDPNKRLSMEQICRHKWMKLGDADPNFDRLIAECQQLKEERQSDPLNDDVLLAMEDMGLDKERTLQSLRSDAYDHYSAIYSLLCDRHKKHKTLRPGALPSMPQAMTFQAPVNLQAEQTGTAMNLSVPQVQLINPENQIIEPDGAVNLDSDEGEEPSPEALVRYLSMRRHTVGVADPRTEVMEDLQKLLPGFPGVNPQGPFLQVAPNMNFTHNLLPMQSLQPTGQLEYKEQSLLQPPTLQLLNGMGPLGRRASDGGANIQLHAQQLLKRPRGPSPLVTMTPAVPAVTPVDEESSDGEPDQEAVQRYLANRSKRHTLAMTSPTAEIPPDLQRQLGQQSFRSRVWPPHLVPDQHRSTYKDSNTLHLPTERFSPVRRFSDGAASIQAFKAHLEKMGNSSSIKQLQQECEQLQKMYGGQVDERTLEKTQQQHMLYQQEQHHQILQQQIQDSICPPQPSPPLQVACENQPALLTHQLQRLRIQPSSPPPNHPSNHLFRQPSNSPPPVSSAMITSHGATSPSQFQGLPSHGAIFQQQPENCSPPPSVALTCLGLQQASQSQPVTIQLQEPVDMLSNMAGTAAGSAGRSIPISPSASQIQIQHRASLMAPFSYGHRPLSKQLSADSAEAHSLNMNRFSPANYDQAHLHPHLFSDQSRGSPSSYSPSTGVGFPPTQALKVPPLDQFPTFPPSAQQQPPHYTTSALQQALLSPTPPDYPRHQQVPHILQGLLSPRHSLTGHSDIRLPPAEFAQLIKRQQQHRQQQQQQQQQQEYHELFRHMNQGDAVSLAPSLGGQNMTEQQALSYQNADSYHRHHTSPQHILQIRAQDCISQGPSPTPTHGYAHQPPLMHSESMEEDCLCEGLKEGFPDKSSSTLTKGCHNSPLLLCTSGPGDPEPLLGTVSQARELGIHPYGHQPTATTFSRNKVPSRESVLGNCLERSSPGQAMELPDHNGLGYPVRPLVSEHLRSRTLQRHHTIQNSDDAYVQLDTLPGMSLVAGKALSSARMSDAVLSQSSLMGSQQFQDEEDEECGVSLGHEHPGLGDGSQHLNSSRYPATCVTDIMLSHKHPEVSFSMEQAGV
Summary of the method: as §1

[5] = target: ALK2 (Mus musculus, UniProt P37172)
ALK2, sequence (P37172 21-509): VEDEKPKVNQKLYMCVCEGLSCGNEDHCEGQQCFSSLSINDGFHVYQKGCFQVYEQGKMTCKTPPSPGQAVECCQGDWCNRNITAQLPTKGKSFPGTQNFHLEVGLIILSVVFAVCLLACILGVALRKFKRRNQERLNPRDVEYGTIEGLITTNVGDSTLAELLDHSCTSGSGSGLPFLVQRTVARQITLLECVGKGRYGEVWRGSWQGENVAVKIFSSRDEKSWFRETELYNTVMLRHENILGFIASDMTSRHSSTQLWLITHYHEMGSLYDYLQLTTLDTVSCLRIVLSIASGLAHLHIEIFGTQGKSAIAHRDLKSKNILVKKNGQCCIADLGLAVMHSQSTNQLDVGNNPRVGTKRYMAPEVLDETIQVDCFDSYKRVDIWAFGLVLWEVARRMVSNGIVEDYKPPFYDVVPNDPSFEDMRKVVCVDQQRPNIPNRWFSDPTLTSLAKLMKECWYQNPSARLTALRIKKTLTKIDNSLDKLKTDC
Summary of the method: as §1

[6] = tested on: BRAFps
Summary of the method: as §1

SMILES: CNC1CC2OC(C)(C1OC)n1c3ccccc3c3c4c(c5c6ccccc6n2c5c31)C(=O)NC4 (stereo not drawn) [CZC9280]
- mass spectrometry score, PKCg [1]: 53
- number of identified peptides, PKCg [1]: 1

- mass spectrometry score, AMPKa1 [3]: 64
- number of identified peptides, AMPKa1 [3]: 2
SMILES: NCc1ccc(Nc2ncc(F)c(Nc3ccccc3)n2)cc1 [CZC00008004]
- mass spectrometry score, LIMK1ps [2]: 186
- number of identified peptides, LIMK1ps [2]: 4

- mass spectrometry score, QSK [4]: 153
- number of identified peptides, QSK [4]: 7
- mass spectrometry score, ALK2 [5]: 65
- number of identified peptides, ALK2 [5]: 2
SMILES: CCCCCCCCCCCCOS(=O)(=O)[O-].[Na+] [SDS]

SMILES: Cn1c(=O)c(-c2c(Cl)cccc2Cl)cc2cnc(Nc3ccc(CN)cc3)cc21 [CZC7324]
- mass spectrometry score, BRAFps [6]: 70
- number of identified peptides, BRAFps [6]: 4
